Laboratory results reported in ChEMBL document CHEMBL4706567, “Transthyretin Amyloidogenesis Inhibitors: From Discovery to Current Developments” (J Med Chem, 2020).

Columns and labels:
Transthyretin [1] = target: Transthyretin (Homo sapiens, UniProt P02766); experiment: Binding affinity to wild type TTR (unknown origin) expressed in Escherichia coli BL21/DE3 by Circular dichroism spectroscopy
Transthyretin [2] = target: Transthyretin (Homo sapiens, UniProt P02766, V50M); experiment: Stabilization of TTR V30M mutant (unknown origin) assessed as inhibition of protein-mediated amyloid fibril formation

Q: How did the Kd (Transthyretin [1]) turn out when `O=C(O)Cc1ccccc1Nc1c(Cl)cccc1Cl` [DICLOFENAC] was run?
A: 0.06 µM

Q: For `O=C(O)c1ccccc1Nc1cccc(C(F)(F)F)c1` [FLUFENAMIC ACID], which Kd (Transthyretin [1]) is on record?
A: 0.03 µM

Q: With `O=C(CCc1ccc(O)cc1)c1c(O)cc(O)cc1O` [PHLORETIN] as the compound, how does the Kd (Transthyretin [2]) read?
A: 8.1 µM

Q: With `COc1cc(O)c(CC=C(C)C)c(O)c1C(=O)/C=C/c1ccc(O)cc1` [XANTHOHUMOL] as the compound, how does the Kd (Transthyretin [2]) read?
A: 12 µM
